Measured values reported in the NIST ThermoML archive (doi:10.1016/j.fluid.2018.04.007).
± gives the expanded uncertainty stated by the source.

How the values were obtained:
[1] = refractive index (Na D-line) (dimensionless); xn = mol fraction of the nth substance listed; details: 101 kPa, Liquid, Standard Abbe refractometry
[2] = relative permittivity at various frequencies (dimensionless); xn = mol fraction of the nth substance listed; details: 101 kPa, Liquid, Frequency=1 MHz, Parallel plate capacitor

CCCCCCN [1-hexanamine] + CCCCO
Details	refractive index, 293.15 K	refractive index, 298.15 K	refractive index, 303.15 K	relative permittivity, 293.15 K	relative permittivity, 298.15 K	relative permittivity, 303.15 K
[1], x2 = 0	1.4181 ± 0.00033	1.41565 ± 0.00033	1.41322 ± 0.00033	–	–	–
[1], x2 = 0.0552	1.41812 ± 0.00033	1.41564 ± 0.00033	1.41324 ± 0.00033	–	–	–
[1], x2 = 0.0896	1.418 ± 0.00033	1.41556 ± 0.00033	1.41319 ± 0.00033	–	–	–
[1], x2 = 0.1588	1.41781 ± 0.00033	1.41542 ± 0.00033	1.41306 ± 0.00033	–	–	–
[1], x2 = 0.1967	1.41768 ± 0.00033	1.41529 ± 0.00033	1.41294 ± 0.00033	–	–	–
[1], x2 = 0.3035	1.41702 ± 0.00033	1.4147 ± 0.00033	1.4124 ± 0.00033	–	–	–
[1], x2 = 0.4077	1.41603 ± 0.00033	1.41381 ± 0.00033	1.41148 ± 0.00033	–	–	–
[1], x2 = 0.4984	1.41487 ± 0.00033	1.41267 ± 0.00033	1.4104 ± 0.00033	–	–	–
[1], x2 = 0.6004	1.41298 ± 0.00033	1.41079 ± 0.00033	1.40852 ± 0.00033	–	–	–
[1], x2 = 0.6977	1.41065 ± 0.00033	1.40845 ± 0.00033	1.40621 ± 0.00033	–	–	–
[1], x2 = 0.7982	1.40746 ± 0.00033	1.40534 ± 0.00033	1.40316 ± 0.00033	–	–	–
[1], x2 = 0.8451	1.40577 ± 0.00033	1.40368 ± 0.00033	1.40155 ± 0.00033	–	–	–
[1], x2 = 0.8996	1.40359 ± 0.00033	1.40158 ± 0.00033	1.39949 ± 0.00033	–	–	–
[1], x2 = 0.9461	1.40166 ± 0.00033	1.39965 ± 0.00033	1.39765 ± 0.00033	–	–	–
[2], x2 = 0	–	–	–	3.965 ± 0.37	3.904 ± 0.37	3.845 ± 0.36
[2], x2 = 0.051	–	–	–	4.258 ± 0.38	4.186 ± 0.38	4.12 ± 0.38
[2], x2 = 0.0969	–	–	–	4.538 ± 0.39	4.46 ± 0.39	4.385 ± 0.39
[2], x2 = 0.1402	–	–	–	4.828 ± 0.4	4.739 ± 0.4	4.656 ± 0.4
[2], x2 = 0.2052	–	–	–	5.294 ± 0.42	5.19 ± 0.41	5.094 ± 0.41
[2], x2 = 0.3095	–	–	–	6.164 ± 0.44	6.028 ± 0.44	5.898 ± 0.44
[2], x2 = 0.4059	–	–	–	7.139 ± 0.47	6.965 ± 0.47	6.797 ± 0.46
[2], x2 = 0.5054	–	–	–	8.352 ± 0.51	8.121 ± 0.5	7.905 ± 0.49
[2], x2 = 0.593	–	–	–	9.623 ± 0.54	9.333 ± 0.53	9.058 ± 0.53
[2], x2 = 0.6983	–	–	–	11.376 ± 0.58	11.005 ± 0.58	10.656 ± 0.57
[2], x2 = 0.8047	–	–	–	13.472 ± 0.63	13.003 ± 0.62	12.566 ± 0.61
[2], x2 = 0.8525	–	–	–	14.558 ± 0.66	14.054 ± 0.65	13.565 ± 0.63
[2], x2 = 0.9035	–	–	–	15.741 ± 0.68	15.182 ± 0.67	14.656 ± 0.66
[2], x2 = 0.946	–	–	–	16.795 ± 0.7	16.197 ± 0.69	15.632 ± 0.68
